Patent publication US20150266920A1, “MACROCYCLIC KETOAMIDE IMMUNOPROTEASOME INHIBITORS” (HOFF-MANN-LA ROCHE INC., priority 2012, published 2015)

Columns and labels:
β 5i = target: T1, β 5i (Homo sapiens, UniProt P20618+P28062); assay: Cell-Based Proteasome Activity/Selectivity Assay, Ramos cells, substrate (ANW)2Rh110; conditions: β5i substrate (ANW)2Rh110, read-out: Ic50 ramos: ac-(anw)2-r110
T1 construct: protease activity associated with the proteasome complex in cultured cells; endogenous in cells; host or cells: Ramos cells
From the text: (§1) Cell-Based Proteasome Activity/Selectivity Assay
(§2) The Cell-Based Proteasome subunit activity/selectivity assay was a panel of 5 fluorogenic assays that independently measured the activity of β5c or β 5i (chymotrypsin-like activity), β2c/2i (trypsin-like), and β 1c or β 1i (caspase-like) protease activity associated with the proteasome complex in cultured cells. Specifically, the following substrates were used for respective subunit activities: β 1i: (PAL)2Rh110, β 1c: (LLE)2 Rh110, β2c/2i: (KQL)2Rh110, β 5c: (WLA)2Rh110, β 5i: (ANW)2Rh110. The following procedure was followed:
(§3) Cell preparation: Plated 25 μl of Ramos cells (2×10^6/ml in DPBS) into half area plate (PerkinElmer Cat 6005569) to final 5×10^4 cells/well. Added 0.5 μl of 100×4-fold serial diluted test compounds or DMSO to each well. Highest concentration of compound tested was 20 thus compound serial dilution started from […]. Incubated for 30 minutes at 37° C. Then equilibrated at room temperature for 15 minutes. Added 25 μl of 2× reaction mix consisting of 0.025% digitonin, 20 μM of each substrates and 0.5M sucrose in DPBS. Shaked for one minute @ 700 rpm. Incubated for […] at room temperature. Then read the plates with an Envision multilabel plate reader (PerkinElmer) with 500 nm excitation/519 nm emission.

β 5c = target: T2, β 5c (Homo sapiens, UniProt P20618+P28074); assay: Cell-Based Proteasome Activity/Selectivity Assay, Ramos cells, substrate (WLA)2Rh110; conditions: β5c substrate (WLA)2Rh110
T2 construct: protease activity associated with the proteasome complex in cultured cells; endogenous in cells; host or cells: Ramos cells
From the text: as §1, §2, §3

β2c/2i = assay: Cell-Based Proteasome Activity/Selectivity Assay, Ramos cells, substrate (KQL)2Rh110; conditions: β2c/2i substrate (KQL)2Rh110
From the text: as §1, §2, §3

β 1i = target: T3, β 1i (Homo sapiens, UniProt P28065+P40306); assay: Cell-Based Proteasome Activity/Selectivity Assay, Ramos cells, substrate (PAL)2Rh110; conditions: β1i substrate (PAL)2Rh110
T3 construct: protease activity associated with the proteasome complex in cultured cells; endogenous in cells; host or cells: Ramos cells
From the text: as §1, §2, §3

β 1c = target: T4, β 1c (Homo sapiens, UniProt P28072+Q99436); assay: Cell-Based Proteasome Activity/Selectivity Assay, Ramos cells, substrate (LLE)2 Rh110; conditions: β1c substrate (LLE)2 Rh110
T4 construct: protease activity associated with the proteasome complex in cultured cells; endogenous in cells; host or cells: Ramos cells
From the text: as §1, §2, §3

IP 10 level = assay: PBMC IP-10 Assay; type: cell-based; conditions: Homo sapiens, PBMCs stimulated with CpG Type A, assay not named in the column head
Method: PBMCs were isolated from whole blood as follows: Blood was collected in a sterile environment in heparinized tubes. Blood was diluted with an equal volume PBS/2% FCS and 30 ml of this mixture was added to ACCUSPIN tubes containing 15 ml Histopaque-1077 already centrifuged at 800 g for 30 seconds and warmed up at room temperature. The tubes were then centrifuged at 800 g for 20 minutes at room temperature with no brake. The mononuclear band, just above the polyethylene frit, was removed by Pasteur pipet. These mononuclear cells were washed three times with sterile PBS, counted, and resuspended in RPMI 1640 supplemented with 10% heat inactivated fetal calf serum, 10 mM HEPES, 1 mM sodium pyruvate, penicillin (50 U/ml), streptomycin (50 μg/ml) and glutamine (2 mM) to approximately 1.5×10^6/ml. […] PBMC viability of cells remaining in the well was measured with ATPlite luminescence assay (Perkin-Elmer) per the manufacturer's instructions. Luminescence was measured on the Perkin-Elmer Envision, using the luminescence filter. IP 10 level was measured with CXCL10/IP10 AlphaLISA kit (Perkin-Elmer) per the manufacturer's instructions, except halving all volumes. Fluorescence was measured on the Envision Multilabel plate reader, using the AlphaScreen standard settings.

LMP7 [1] = target: T5, LMP7 (Mus musculus, UniProt O09061+P28063); conditions: mouse CAIA and CIA arthritis models; cited from earlier work
LMP7 [2] = target: T5, LMP7; conditions: MRL/lpr lupus-prone mice; cited from earlier work
LMP7 [3] = target: T5, LMP7; conditions: DSS-induced colitis model in mice; cited from earlier work

IC50 (β 5i) [nM]	IC50 (β 5c) [nM]	IC50 (β2c/2i) [nM]	IC50 (β 1i) [nM]	IC50 (β 1c) [nM]	EC50 (IP 10 level) [nM]	SMILES	disease score (LMP7 [1])	disease progression (LMP7 [2])	plasma cells numbers and levels of anti-dsDNA IgG (LMP7 [2])	inflammation and tissue destruction (LMP7 [3])
19	353	> 20000	1970	> 20000	347	C[C@@H]1NC(=O)CCc2cccc(c2)-c2cccc(c2)CC[C@@H](C(=O)N[C@@H](Cc2ccccc2)C(=O)C(=O)NCc2ccccc2)NC1=O [Example 1, (9S,12S)-12-Methyl-11,14-dioxo-10,13-diaza-tricyclo[15.3.1.1^2,6]docosa-1(20),2(22),3,5,17(21),18-hexaene-9-carboxylic acid ((S)-1-benzyl-2-benzylcarbamoyl-2-oxo-ethyl)-amide]	–	–	–	–
–	–	–	–	–	–	COc1ccc(C[C@H](NC(=O)[C@H](C)NC(=O)CN2CCOCC2)C(=O)N[C@@H](Cc2ccccc2)C(=O)[C@@]2(C)CO2)cc1 [PR-957]	significantly decrease disease score	prevented disease progression	reduced plasma cells numbers and levels of anti-dsDNA IgG	reduced inflammation and tissue destruction
